Measured values published in PubChem BioAssay AID330 (DTP/NCI, 2004).
Several values for one entry are separate records, joined by “and”; a condition that tells them apart may be missing. Equal values may be shown once. Inconclusive results and toxic doses are left out. The calls were made as follows: active = survival T/C of 150% or more; inactive = T/C below 125% in these data.

System: P388 leukemia ip, CD2F1 mice, survival T/C
Test: NCI In Vivo Anticancer Drug Screen. Data for tumor model P388 Leukemia (intraperitoneal) in CD2F1 (CDF1) mice
Settings: endpoint: median survival time, higher = longer survival
Procedure, shortened: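 Mice carrying the transplanted tumor received test compound or vehicle. Survival was recorded in each group, and the value is the treated-group measurement divided by that of the vehicle-treated control group.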

[1] = dose: 100.0 mg/kg/injection, schedule: Q01DX009 (ip), vehicle: saline with Tween-80
[2] = dose: 200.0 mg/kg/injection, schedule: Q01DX009 (ip), vehicle: saline with Tween-80
[3] = dose: 400.0 mg/kg/injection, schedule: Q01DX009 (ip), vehicle: saline with Tween-80
[4] = dose: 50.0 mg/kg/injection, schedule: Q01DX009 (ip), vehicle: Klucel (hydroxypropylcellulose) (HPC)
[5] = dose: 100.0 mg/kg/injection, schedule: Q01DX009 (ip), vehicle: Klucel (hydroxypropylcellulose) (HPC)
[6] = dose: 12.5 mg/kg/injection, schedule: Q04DX003 (ip), vehicle: Klucel (hydroxypropylcellulose) (HPC)
[7] = dose: 50.0 mg/kg/injection, schedule: Q01DX005 (ip), vehicle: saline with Tween-80
[8] = dose: 100.0 mg/kg/injection, schedule: Q01DX005 (ip), vehicle: saline with Tween-80
[9] = dose: 200.0 mg/kg/injection, schedule: Q01DX005 (ip), vehicle: saline with Tween-80
[10] = dose: 50.0 mg/kg/injection, schedule: Q01DX009 (ip), vehicle: saline with Tween-80
[11] = dose: 25.0 mg/kg/injection, schedule: Q01DX009 (ip), vehicle: saline with Tween-80

Measured: T/C

ONc1ccc2c(c1)C1C(C3C2C2(Cl)C(Cl)=C(Cl)C3(Cl)C2(Cl)Cl)C2(Cl)C(Cl)=C(Cl)C1(Cl)C2(Cl)Cl (stereo unspecified)
inactive: dose: 50.0 mg/kg/injection, schedule: Q01DX009 (ip), vehicle: saline 96 % of control | dose: 100.0 mg/kg/injection, schedule: Q01DX009 (ip), vehicle: saline 99 % of control | dose: 200.0 mg/kg/injection, schedule: Q01DX009 (ip), vehicle: saline 92 % of control

CC(C)CCCCc1c[nH]c(=O)[nH]c1=O
inactive: [1] 95 % of control | [2] 90 % of control | [3] 100 % of control

CC(C)(C)C1(C(C)(C)C)CO1
inactive: dose: 6.25 mg/kg/injection, schedule: Q01DX009 (ip), vehicle: saline 98 % of control | dose: 12.5 mg/kg/injection, schedule: Q01DX009 (ip), vehicle: saline 96 % of control

CCOC(=O)CCC(=O)N(CCCNc1c2ccccc2nc2c(OC)cccc12)CCCNc1c2ccccc2nc2c(OC)cccc12
inactive: dose: 1.25 mg/kg/injection, schedule: Q01DX009 (ip), vehicle: water 111 % of control | dose: 2.5 mg/kg/injection, schedule: Q01DX009 (ip), vehicle: water 116 % of control | dose: 20.0 mg/kg/injection, schedule: Q01DX009 (ip), vehicle: water 97 % of control

C=C(OC1C=C(C(=O)O)C2OC2C1O)C(=O)O (stereo unspecified)
inactive: dose: 2.5 mg/kg/injection, schedule: Q01DX005 (ip), vehicle: saline 100 % of control | dose: 5.0 mg/kg/injection, schedule: Q01DX005 (ip), vehicle: saline 100 % of control | dose: 10.0 mg/kg/injection, schedule: Q01DX005 (ip), vehicle: saline 106 % of control | dose: 20.0 mg/kg/injection, schedule: Q01DX005 (ip), vehicle: saline 102 % of control | dose: 40.0 mg/kg/injection, schedule: Q01DX005 (ip), vehicle: saline 109 % of control

O=C(O)C1Cc2c([nH]c3ccccc23)C(CO)N1 (stereo unspecified)
inactive: dose: 25.0 mg/kg/injection, schedule: Q01DX009 (ip), vehicle: suspension in saline 107 % of control | dose: 50.0 mg/kg/injection, schedule: Q01DX009 (ip), vehicle: suspension in saline 104 % of control

Cn1nnc(/C(N)=N/N=C/c2ccccc2)n1
inactive: [4] 100 % of control | [5] 102 % of control | dose: 200.0 mg/kg/injection, schedule: Q01DX009 (ip), vehicle: Klucel (hydroxypropylcellulose) (HPC) 94 % of control

CC1CCC2(CC1C)C(=O)NC(=O)NC2=O (stereo unspecified)
inactive: [6] 100 % of control | dose: 25.0 mg/kg/injection, schedule: Q04DX003 (ip), vehicle: Klucel (hydroxypropylcellulose) (HPC) 97 % of control | dose: 50.0 mg/kg/injection, schedule: Q04DX003 (ip), vehicle: Klucel (hydroxypropylcellulose) (HPC) 105 % of control | dose: 100.0 mg/kg/injection, schedule: Q04DX003 (ip), vehicle: Klucel (hydroxypropylcellulose) (HPC) 100 % of control

Cc1c(-c2ccccc2)ccnc1/C=N/NC(=S)NCCCN(C)C
inactive: dose: 12.5 mg/kg/injection, schedule: Q01DX009 (ip), vehicle: other 105 % of control | dose: 25.0 mg/kg/injection, schedule: Q01DX009 (ip), vehicle: other 114 % of control | dose: 50.0 mg/kg/injection, schedule: Q01DX009 (ip), vehicle: other 101 % of control and 112 % of control

CC1=C(C(=O)CC(=O)C(=O)Nc2cc(Cl)c(Cl)cc2Cl)Sc2ccccc2N1
inactive: [7] 101 % of control | [8] 102 % of control | [9] 98 % of control

O=C(NC(=O)c1c(F)cccc1F)Nc1ccc(Cl)cn1
inactive: dose: 50.0 mg/kg/injection, schedule: Q04DX002 (ip), vehicle: saline with Tween-80 95 % of control | dose: 100.0 mg/kg/injection, schedule: Q04DX002 (ip), vehicle: saline with Tween-80 100 % of control | dose: 200.0 mg/kg/injection, schedule: Q04DX002 (ip), vehicle: saline with Tween-80 98 % of control

C[Si](C)(C)O/C=C1\CCCCC1=O
inactive: [10] 121 % of control | [1] 106 % of control

Cc1c(-c2ccccc2)ccnc1/C=N/NC(=S)NCc1cccnc1
inactive: dose: 12.5 mg/kg/injection, schedule: Q01DX009 (ip), vehicle: saline with Tween-80 98 % of control | [11] 96 % of control | [10] 111 % of control and 122 % of control | [1] 88 % of control

O=C1c2cccc3c([N+](=O)[O-])ccc(c23)C(=O)N1CCc1ccccn1
inactive: [7] 101 % of control | [8] 111 % of control | [9] 96 % of control

C=c1cc2c(cc1=C)C(=O)c1ccccc1C2=O
inactive: dose: 15.0 mg/kg/injection, schedule: Q01DX005 (ip), vehicle: saline with Tween-80 89 % of control | dose: 30.0 mg/kg/injection, schedule: Q01DX005 (ip), vehicle: saline with Tween-80 90 % of control | dose: 60.0 mg/kg/injection, schedule: Q01DX005 (ip), vehicle: saline with Tween-80 86 % of control and 91 % of control | dose: 240.0 mg/kg/injection, schedule: Q01DX005 (ip), vehicle: saline with Tween-80 89 % of control

NC1(N2SC(S)=C3CCCC=C32)CCCCC1
inactive: [10] 97 % of control | [1] 100 % of control | [2] 105 % of control

CC(C)CC(=O)NC(C(=O)NC(C(=O)NC(CC(C)C)C(O)CC(=O)NC(C)C(=O)NC(CC(C)C)C(O)CC(=O)O)C(C)C)C(C)C (stereo unspecified)
inactive: dose: 6.25 mg/kg/injection, schedule: Q01DX009 (ip), vehicle: Klucel (hydroxypropylcellulose) (HPC) 102 % of control | [4] 98 % of control and 122 % of control and 87 % of control | [5] 90 % of control and 95 % of control

Cc1ccc(C[N+](C)(C)CCCCCOc2c(Br)cc(Br)cc2Br)o1
inactive: dose: 3.13 mg/kg/injection, schedule: Q04DX003 (ip), vehicle: Klucel (hydroxypropylcellulose) (HPC) 101 % of control | dose: 6.25 mg/kg/injection, schedule: Q04DX003 (ip), vehicle: Klucel (hydroxypropylcellulose) (HPC) 94 % of control | [6] 98 % of control and 106 % of control

COc1ccc(C(=O)c2no[n+]([O-])c2C(=O)c2ccc(OC)cc2)cc1
inactive: [11] 108 % of control | [10] 104 % of control and 107 % of control | [1] 100 % of control and 106 % of control | [2] 115 % of control | [3] 123 % of control
